In patent US7625718B2, “SVCT2 transporters expressed in blood brain barrier cells” (XenoPort, Inc., priority 2005, dated 2009):

Experiments:
hSVCT2 [1] = molecular target: T1, hSVCT2 (Homo sapiens, UniProt Q9UGH3); test: hSVCT2 competition uptake assay in HEK-TREx-hSVCT2 cells; type: cell-based
T1 construct: expressed in transfected cells; host or cells: HEK-TREx cells, tetracycline-induced
Method: A modified competition uptake assay was developed to determine the ability of a test compound(s) to inhibit the uptake of radiolabeled substrates into […] induced to over-express hSVCT2. The results are stated as affinities (IC50). The competition uptake assay was prepared as follows: Compounds were prepared for assay by diluting a 100 mM stock concentration (in DMSO) to the appropriate working concentration. Typically, seven-point dose response curves were prepared starting at a final assay concentration of 1 mM and carrying out three-fold dilutions. […] Scintillation fluid (200 μl) (Optiphase Supermix (Perkin Elmer) was added to each well, and the plate was covered with a 96-well adhesive plate cover and placed on a shaker for 10 minutes. The plates were counted on a 96-well plate scintillation counter for 60 sec/well. The data were analyzed using a sigmoidal dose response curve-fitting program (Prism, GraphPad, Inc, San Diego, Calif.; equation: one-site competition). FIG. 2 depicts the results of a competition experiment using HEK-TREx-SVCT2 cells. ^3H-Ascorbic acid was used as the substrate and unlabeled ascorbic acid was used as the competitor. […] Non-specific uptake was determined by measuring the uptake into cells not induced to express the transporter (“no tet”). […]

hSVCT2 [2] = molecular target: T1, hSVCT2; test: hSVCT2 direct uptake assay in HEK-TREx-hSVCT2 cells (LC-MS-MS); type: cell-based; conditions: HEK-TREx-hSVCT2 cells induced to express hSVCT2
Method: A modified direct uptake assay was developed to determine the ability of test compounds to be transported into HEK-TREx cells induced to over-express hSVCT2. Four concentrations (bracketing the affinity as measured by competition assays) per compound were routinely tested. Non-specific uptake was determined by measuring the uptake into cells not induced to express the transporter (“no tet”).
The direct uptake assays were prepared as follows: Compounds were prepared for assay by diluting a 100 mM stock concentration (in DMSO or water, depending on compound solubility) to the appropriate working concentration. Typically, four concentrations bracketing the IC50 were tested. The highest test concentration for each compound was made in an Eppendorf tube and diluted into HBSS. The samples were robustly vortexed and centrifuged for 10 minutes at 13,200 rpm to spin down any precipitate. The supernatant from these samples (˜150 μl/well) was carefully removed and placed into six wells of row A (cmpd 1: A1-6; cmpd 2: A7-12) or row E (cmpd 3: E1-6; cmpd 4: E7-12) of a 96-well polypropylene “compound” plate. Three additional 2-fold dilutions were made in the subsequent rows (B-D or […]) in HBSS. […]

PgP = molecular target: T2, PgP (Homo sapiens, UniProt P08183); test: Transwell monolayer efflux assay in TREx-PgP MDCK cells; type: in vitro ADME
T2 construct: expressed in transfected cells; host or cells: MDCK cells, tetracycline-inducible
Method: Transwell monolayer efflux assays can be performed by transfecting MDCK cells with the tetracycline-inducible TREx-PgP expression vector. The cells optionally can be transfected with a nucleic acid encoding the transporter of interest. The transfected cells are seeded on polycarbonate filter membranes in transwell dishes and grown for 3-5 days, yielding a polarized monolayer with tight junctions between cells.

[3] = 2.5 nM, in the presence of 250 μM verapamil

T2 sequence (P08183 whole entry): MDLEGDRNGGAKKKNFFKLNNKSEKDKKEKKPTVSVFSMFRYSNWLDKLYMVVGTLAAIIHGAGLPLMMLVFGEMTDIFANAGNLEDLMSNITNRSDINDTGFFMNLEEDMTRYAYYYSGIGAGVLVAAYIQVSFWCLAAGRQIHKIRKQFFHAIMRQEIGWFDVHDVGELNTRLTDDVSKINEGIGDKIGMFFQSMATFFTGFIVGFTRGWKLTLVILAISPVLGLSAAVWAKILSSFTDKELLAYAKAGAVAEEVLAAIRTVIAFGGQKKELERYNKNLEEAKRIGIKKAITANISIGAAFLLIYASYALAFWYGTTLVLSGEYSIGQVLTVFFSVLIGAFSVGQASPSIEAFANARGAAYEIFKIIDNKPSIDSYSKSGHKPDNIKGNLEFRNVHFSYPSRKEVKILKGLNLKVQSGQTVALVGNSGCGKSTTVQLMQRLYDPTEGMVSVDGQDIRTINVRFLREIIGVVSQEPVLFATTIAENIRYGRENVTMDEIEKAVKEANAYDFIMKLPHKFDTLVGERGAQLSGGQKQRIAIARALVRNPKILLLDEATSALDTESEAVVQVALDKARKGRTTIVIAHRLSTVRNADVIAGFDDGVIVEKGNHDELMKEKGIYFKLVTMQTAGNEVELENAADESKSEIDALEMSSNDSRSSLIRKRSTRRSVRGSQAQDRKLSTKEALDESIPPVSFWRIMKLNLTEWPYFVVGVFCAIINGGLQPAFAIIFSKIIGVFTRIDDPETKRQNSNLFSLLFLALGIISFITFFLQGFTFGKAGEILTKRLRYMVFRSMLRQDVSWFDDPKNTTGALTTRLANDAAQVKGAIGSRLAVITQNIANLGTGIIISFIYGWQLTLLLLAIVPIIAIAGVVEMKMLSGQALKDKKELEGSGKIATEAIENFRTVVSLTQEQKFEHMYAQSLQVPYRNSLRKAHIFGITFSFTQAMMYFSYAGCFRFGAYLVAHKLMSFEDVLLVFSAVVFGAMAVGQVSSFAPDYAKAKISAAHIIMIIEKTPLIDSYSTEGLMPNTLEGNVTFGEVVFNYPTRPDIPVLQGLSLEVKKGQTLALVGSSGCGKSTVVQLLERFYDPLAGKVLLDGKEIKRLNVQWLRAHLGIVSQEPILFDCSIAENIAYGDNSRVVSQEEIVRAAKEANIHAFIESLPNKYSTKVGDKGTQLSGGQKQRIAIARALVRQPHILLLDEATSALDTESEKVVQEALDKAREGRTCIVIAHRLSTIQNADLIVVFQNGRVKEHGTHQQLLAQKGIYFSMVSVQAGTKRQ
T1 sequence (Q9UGH3 whole entry): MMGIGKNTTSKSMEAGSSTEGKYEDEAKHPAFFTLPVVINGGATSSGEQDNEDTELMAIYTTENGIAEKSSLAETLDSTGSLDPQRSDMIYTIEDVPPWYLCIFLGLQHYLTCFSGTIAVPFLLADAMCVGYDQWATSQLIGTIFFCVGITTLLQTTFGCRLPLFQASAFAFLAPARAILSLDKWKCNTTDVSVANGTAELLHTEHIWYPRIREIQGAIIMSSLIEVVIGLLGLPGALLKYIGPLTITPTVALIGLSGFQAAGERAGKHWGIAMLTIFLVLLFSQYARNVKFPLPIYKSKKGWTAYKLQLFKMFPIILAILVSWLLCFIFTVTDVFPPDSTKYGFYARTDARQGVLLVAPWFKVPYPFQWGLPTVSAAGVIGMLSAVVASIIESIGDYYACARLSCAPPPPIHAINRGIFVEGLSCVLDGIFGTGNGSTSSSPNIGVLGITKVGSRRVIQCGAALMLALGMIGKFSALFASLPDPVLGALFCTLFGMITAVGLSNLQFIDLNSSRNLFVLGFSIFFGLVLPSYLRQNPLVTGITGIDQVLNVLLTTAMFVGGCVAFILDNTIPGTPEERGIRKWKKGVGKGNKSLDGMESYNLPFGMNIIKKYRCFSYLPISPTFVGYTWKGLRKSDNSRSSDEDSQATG

uptake of labeled ascorbic acid as concentration of unlabeled ascorbic acid increased (hSVCT2 [1]; cells induced to express SVCT2, ^3H-ascorbic acid substrate, FIG. 2)	IC50 (hSVCT2 [1]; inhibition of radiolabeled ascorbic acid uptake, HEK-TREx-hSVCT2 cells induced to express hSVCT2) [µM]	Direct Uptake Vmax (hSVCT2 [2]) [pmol/min/well]	efflux transporter substrate status (PgP)	apical to basolateral transport (PgP; [3])	basolateral to apical transport (PgP; [3])	SMILES
decreased	55	21				O=C1O[C@H]([C@@H](O)CO)C(O)=C1O [Ascorbic Acid]
			substrate of PgP	strongly increased	strongly decreased	CC[C@]1(O)C[C@@H]2CN(CCc3c([nH]c4ccccc34)[C@@](C(=O)OC)(c3cc4c(cc3OC)N(C)[C@H]3[C@@](O)(C(=O)OC)[C@H](OC(C)=O)[C@]5(CC)C=CCN6CC[C@]43[C@@H]65)C2)C1 [^3H-vinblastine]
